The target of this assay is h2E2 humanized anti-cocaine mAb. Description: differential scanning fluorimetry. The class given is binding, Homo sapiens. Particulars: read-out: Avg Kd (nM) ± Std. Dev. (fold increase vs unmodified h2E2 mAb). For orientation: Differential scanning fluorimetry follows unfolding on heating by fluorescence.
Regarding `CCOC(=O)[C@H]1[C@@H](OC(=O)c2ccccc2)C[C@@H]2CC[C@H]1N2C` [CE, cocaethylene], the Kd turned out to be 20.7 ± 4.1 nM.
With `COC(=O)[C@H]1[C@@H](OC(=O)c2ccccc2)C[C@@H]2CC[C@H]1N2C` [Coc, cocaine], the Kd was 53 ± 6.8 nM.
For `CN1[C@H]2CC[C@@H]1[C@@H](C(=O)O)[C@@H](OC(=O)c1ccccc1)C2` [BE, benzoylecgonine] the value was 177 ± 14 nM.
